Earlier results on one compound are cited in patent US20250163027A1, “GPR88-RECEPTOR-AGONIST” (Boehringer Ingelheim International GmbH, priority 2023, published 2025).

SMILES strings stand for the structures. Bounds are passed on as bounds.

This data set addresses hGPR88 receptor (Homo sapiens, UniProt Q9GZN0). Conditions: value marked * : cAMP assay, not BRET.

hGPR88 receptor, sequence (Q9GZN0 whole entry): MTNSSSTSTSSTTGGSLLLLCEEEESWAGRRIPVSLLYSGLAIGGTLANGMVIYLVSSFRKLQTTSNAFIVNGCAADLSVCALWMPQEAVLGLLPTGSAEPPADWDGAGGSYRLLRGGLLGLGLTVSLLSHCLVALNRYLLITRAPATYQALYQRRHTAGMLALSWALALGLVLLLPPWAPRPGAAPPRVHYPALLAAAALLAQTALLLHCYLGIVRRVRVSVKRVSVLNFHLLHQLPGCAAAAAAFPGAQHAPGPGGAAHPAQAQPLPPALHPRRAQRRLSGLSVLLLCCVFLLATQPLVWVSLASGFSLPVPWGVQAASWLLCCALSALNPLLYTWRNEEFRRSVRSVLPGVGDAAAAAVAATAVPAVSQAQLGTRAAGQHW

In the case of `COCc1ccc(-c2ccc(N(CC(C)(C)O)C(=O)C3CC3c3ccccn3)cc2)cc1` (stereo not shown) [Ex 141 in WO2022/129933], the 50% effective concentration (EC50) (as a rule, the concentration needed to bring the measured effect to its halfway point) was > 5 µM.
